Measurements from patent US20170273948A1, “USE OF SIGMA RECEPTOR LIGANDS IN OSTEOARTHRITIS” (LABORATORIOS DEL DR ESTEVE S.A., priority 2014, published 2017).
Structures can show the parent of a compound that is named as a salt.

Tests used:
[1] = test system: osteoarthritic-induced allodynia (MIA-induced osteoarthritis); assay: MIA-induced osteoarthritis in rats: mechanical (tactile) allodynia, paw withdrawal threshold to von Frey filaments; format: in vivo, rat; settings: for progressive amelioration of the basal pain (PRE) found before daily treatments: Example A, three weeks i.p. b.i.d.; for progressive amelioration of the basal pain (PRE) found before daily treatments / analgesia (analgesic effect, POST) / analgesic effect (POST): example 1 60 mg/kg, Tramadol 20 mg/kg; for analgesia (analgesic effect, POST): day 1, single treatment, i.p.; for analgesia (analgesic effect, POST) / analgesic effect (POST): 30 min after treatment; for pain after treatment discontinuation (wash out): versus initial situation; for analgesic effect (POST): day 22, after three weeks of treatment i.p. b.i.d.
Description: Male Sprague-Dawley rats (Harlan, San Pietro Nastisone, Udine, Italia), weighing 50-75 g on arrival at the laboratory, were used. Animals were allowed to acclimate for one week in groups of five per cage in a room with constant temperature (21±1° C.) and relative humidity (60%), and free access to food and water ad libitum. Automatic light-on and -off allowed alternate light-dark cycles of 12 h:12 h, with light-on at 7:00 a.m. Procedures were approved by the Committee on Animal Research Ethics of ESTEVE and conformed to the guidelines of the IASP (Zimmermann, 1983). In particular, the duration of the experiments was kept as short as possible and the number of rats used was minimized.
Osteoarthritis in rats was induced by intraarticular (i.a.) injection of monosodium iodoacetate (MIA) in the right knee joint, essentially as described by Dunham et al. (1993). After one week of acclimation, rats were briefly anesthetized with isoflurane (5% in 02 at 600 cc/min; IsoFlo®, Veterinaria ESTEVE, MI, Italy) until lack of response to a toe pinch. Surgical area was swabbed with chlorohexidine and alcohol, then a single injection of MIA (50 μl of a 40 mg/ml solution in 0.9% saline, i.e. equal to 2 mg/injection) was delivered using a 28-gauge needle inserted into the joint space of the knee through the intra-patellar ligament, by a gentle flexion of the knee. Sham animals received, in parallel, an equal volume of 0.9% sterile saline.
The MIA dose to obtain a prolonged, marked decrease in mechanical thresholds to von Frey filaments pressure was selected on the basis of a dose-response experiment (not shown). After recovery, animals were returned to their home cage.
Rats […] to the test conditions beforehand were assigned into wire mesh bottom cylinders (transparent metacrylate, 300 mm high×200 mm diameter) and allowed to acclimatize prior the start of the experiment. Tactile allodynia was assessed by determination of the paw withdrawal threshold (PWT) to von Frey filaments stimulation, starting 1 to 15 grams, on the plantar surface of the hind paw. Each filament was applied 3 s until a withdrawal response occurred. A single response indicated a positive response. PWTs were assessed in both the inflamed (ipsilateral) and non-inflamed (contralateral) hind paw and expressed as grams. Control thresholds in the contralateral paw were established in a similar fashion. Nociceptive thresholds were measured prior to MIA injection (Day 0) then after 2 weeks (Day 14) in order to assess allodynia. Only rats with a significant decrease in the minimal pressure (threshold) to trigger ipsilateral versus contralateral hindpaw withdrawal were included in the pharmacological groups; non-responders (noninjured animals) were considered an exclusion criteria. Each animal was used in only one experiment, after which it was sacrificed by CO2.
OA was induced by MIA injection at day −14 in the intra-patellar ligament of the right hindpaw. Sham animals received, in parallel, 50 μl of sterile saline solution. Two weeks later, allodynic rats were characterized by a marked decrease in the minimal pressure (threshold) to trigger withdrawal of the ipsilateral hindpaw (vs. the contralateral hindpaw) when stimulated by using von Frey monofilaments. From day 1 rats received chronic treatment (i.p, b.i.d.) for three weeks (until day 22) with Example 1 or Tramadol for three weeks, and treatment was then discontinued and mechanical allodynia evaluated after 2 days and 7 days (days 24 and 29, respectively) (wash-out period) (FIG. 1).
Two weeks after MIA injection into the knee, rats suffering from mechanical allodynia received a chronic treatment (3 weeks i.p, b.i.d.) with Example 1 (60 mg/kg, FIG. 2A) or Tramadol (20 mg/kg, FIG. 2B). […]

[2] = test system: osteoarthritic-induced allodynia (MIA-induced osteoarthritis); assay: as above; format: in vivo, rat; settings: for progressive amelioration of the basal pain (PRE) found before daily treatments: Example B, i.p. b.i.d., oxycodone 2.5 mg/kg; for progressive amelioration of the basal pain (PRE) found before daily treatments / analgesia (POST): Ex.3 40 mg/kg; for analgesia (POST): day 1, single treatment, i.p., 30 min after treatment, Oxycodone 2.5 mg/kg; for analgesic effect (POST): day 29, repeated daily treatments i.p. b.i.d., Ex. 3 40 mg/kg after four weeks, Oxycodone 2.5 mg/kg after three weeks
sigma (σ-2) site = sigma (σ-2) site (Homo sapiens, UniProt Q5BJF2); settings: cited from earlier work
sigma 1 (σ-1) site = sigma 1 (σ-1) site (Homo sapiens, UniProt Q99720); settings: cited from earlier work
[3] = listed as example 1, hydrochloride

sigma 1 (σ-1) site, sequence (Q99720 whole entry): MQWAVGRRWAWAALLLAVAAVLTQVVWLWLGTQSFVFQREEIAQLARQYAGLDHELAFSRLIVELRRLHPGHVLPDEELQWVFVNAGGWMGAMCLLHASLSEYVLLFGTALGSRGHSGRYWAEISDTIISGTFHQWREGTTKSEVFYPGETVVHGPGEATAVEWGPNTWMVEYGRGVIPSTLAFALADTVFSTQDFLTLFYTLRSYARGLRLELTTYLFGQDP
sigma (σ-2) site, sequence (Q5BJF2 whole entry): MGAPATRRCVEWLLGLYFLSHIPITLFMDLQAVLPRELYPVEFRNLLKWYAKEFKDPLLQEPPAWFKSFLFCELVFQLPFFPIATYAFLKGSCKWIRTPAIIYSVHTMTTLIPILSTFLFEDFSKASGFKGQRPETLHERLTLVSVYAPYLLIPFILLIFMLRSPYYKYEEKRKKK

Compound: Cc1cc(OCCN2CCOCC2)nn1-c1ccc2ccccc2c1 [Example 1, 4-{2-[5-Methyl-1-(naphthalen-2-yl)-1H-pyrazol-3-yloxy]ethyl}morpholine hydrochloride]
- progressive amelioration of the basal pain (PRE) found before daily treatments [1]: progressively ameliorates the basal pain
- analgesia (analgesic effect, POST) ([1]; hydrochloride): ~40%
- analgesia (analgesic effect, POST) [1, 3]: around 40%
- pain after treatment discontinuation (wash out) ([1]; day 2 after discontinuation (day 24)): still reduced
- pain after treatment discontinuation (wash out) ([1]; day 7 after discontinuation (day 29)): went back to the initial situation
- analgesic effect (POST) ([1]; hydrochloride): 90%
- analgesic effect (POST) [1, 3]: around 90%
- reduction of basal pain (PRE) found before daily treatments ([1]; day 22, before first morning administration, example 1 60 mg/kg i.p. b.i.d.): 80%
- analgesic tolerance (loss of analgesic efficacy following repeated treatment) ([1]; repeated treatment i.p. b.i.d. for three weeks): does not induce analgesic tolerance

Compound: COc1ccc2c3c1O[C@H]1C(=O)CC[C@@]4(O)[C@@H](C2)N(C)CC[C@]314 [Oxycodone, reference compound]
- progressive amelioration of the basal pain (PRE) found before daily treatments [2]: not
- analgesia (POST) [2]: ~65%
- analgesic effect (POST) [2]: ~15%

Compound: SKF 10047
- affinity for the sigma (σ-2) site (sigma (σ-2) site): micromolar
- affinity for the sigma 1 (σ-1) site (sigma 1 (σ-1) site): nanomolar

Compound: COc1cccc(C2(O)CCCCC2CN(C)C)c1 (stereo not drawn) [Tramadol, reference compound]
- progressive amelioration of the basal pain (PRE) found before daily treatments [1]: not
- analgesia (analgesic effect, POST) [1]: around 90%
- analgesic effect (POST) [1]: ~10%

Compound: CC(=O)N1CCN(CCOCc2ccn(-c3ccc(F)c(F)c3)n2)CC1 [Example 3, 1-(4-(2-((1-(3,4-difluorophenyl)-1H-pyrazol-3-yl)methoxy)ethyl)piperazin-1-yl)ethanone hydrochloride]
- progressive amelioration of the basal pain (PRE) found before daily treatments [2]: progressively ameliorates the basal pain
- analgesia (POST) [2]: around 5%
- analgesic effect (POST) [2]: around 60%
- reduction of basal pain (PRE) found before daily treatments ([2]; day 30, Ex.3 40 mg/kg i.p. b.i.d.): 65%
